The target in experiment [1] is T1, PAT1 (murine slc26a6) (Mus musculus, UniProt Q8CIW6).
T1 construct: host or cells: Fischer rat thyroid (FRT) cells, lentiviral transduction (pLVX-IRES-mCherry-slc26a6), clonal line FRT-YFP-slc26a6
T1 sequence (Q8CIW6 24-758 limits assumed): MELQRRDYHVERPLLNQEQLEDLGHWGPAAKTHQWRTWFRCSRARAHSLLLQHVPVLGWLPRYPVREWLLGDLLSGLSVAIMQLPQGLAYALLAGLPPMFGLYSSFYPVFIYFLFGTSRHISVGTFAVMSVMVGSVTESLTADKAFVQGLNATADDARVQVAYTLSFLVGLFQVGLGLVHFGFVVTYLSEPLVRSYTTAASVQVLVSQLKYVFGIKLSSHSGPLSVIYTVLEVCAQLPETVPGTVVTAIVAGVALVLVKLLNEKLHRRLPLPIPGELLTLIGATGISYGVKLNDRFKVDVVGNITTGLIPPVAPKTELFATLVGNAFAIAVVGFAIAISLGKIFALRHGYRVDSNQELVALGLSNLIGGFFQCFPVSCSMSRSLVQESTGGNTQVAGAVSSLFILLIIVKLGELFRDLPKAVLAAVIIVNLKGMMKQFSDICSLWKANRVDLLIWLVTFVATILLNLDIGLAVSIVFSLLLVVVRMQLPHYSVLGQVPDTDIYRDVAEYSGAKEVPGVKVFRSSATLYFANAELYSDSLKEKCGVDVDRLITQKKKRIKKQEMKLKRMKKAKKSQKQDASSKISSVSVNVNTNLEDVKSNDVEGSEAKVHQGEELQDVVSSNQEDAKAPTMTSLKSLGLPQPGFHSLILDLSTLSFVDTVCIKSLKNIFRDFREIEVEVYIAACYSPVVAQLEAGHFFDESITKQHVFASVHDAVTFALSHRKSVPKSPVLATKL
Nature of the experiment: PAT1-mediated Cl-/I- exchange, YFP fluorescence quenching in FRT cells. The settings on record: for effect on PAT1-mediated Cl-/I- exchange: 100 μM agonist. Format: cell-based. The procedure:
A small-molecule screen was developed to identify PAT1 inhibitors utilizing transfected FRT cells expressing PAT1 (murine slc26a6) together with a halide-sensing cytoplasmic YFP (Figure 1A). Adherent cells in a 96-well format were subjected to an inward gradient of I^– to drive exchange of I^– for Cl^– and consequent quenching of the YFP fluorescence signal.
A collection of approximately 50,000 diverse, drug-like synthetic small molecules (ChemDiv) was screened at a concentration of 25 μM using a Beckman Coulter BioMek FX liquid handling platform with FLUOstar OMEGA plate readers (BMG Labtech). FRT-YFP-slc26a6 cells were plated in 96-well black-walled, clear-bottom plates (Corning Life Sciences) at a density of 20,000 cells/well and cultured for 48 hours until confluent. Cells were washed twice in PBS and incubated for 10 minutes prior to assay in 100 μl PBS containing test compounds. For assay of slc26a6 function, baseline cellular fluorescence was measured for 2 seconds, after which 100 μl NaI-substituted PBS (140 mM NaCl replaced by 140 mM NaI) was added by syringe pump to drive Cl^–/I^– exchange. The initial rate of Cl^–/I^– exchange was determined by single exponential regression of the fluorescence time course. All assay plates contained wells with negative (1% DMSO) and positive (500 μM niflumic acid) controls. For structure-activity relationship studies, analogs of active compounds were purchased from ChemDiv.

For experiment [2], the system named is mouse midjejunal closed loops. On the set-up: method as in PMID 30046015. The settings on record: 10 μM; cited from earlier work.
For experiment [3], the system named is ileal closed loops in cystic fibrosis (CF) mice (homozygous F508del). Description: Closed ileal loop fluid absorption in CF mice. The class given is in vivo, mouse. Conditions: 10 μM luminal. The procedure:
(§1) For fluid absorption studies in small intestine, mice were given free access to 5% dextrose in water but not solid food for 24 hours before experiments. Closed midjejunal and ileal loops were prepared and isolated as described previously ([29]). Mice were anesthetized with isoflurane, and body temperature was maintained during surgery at 36°C–38°C using a heating pad. A small abdominal incision was made to expose small intestine for isolation of 3–4 closed small intestinal loops (jejunum or ileum, length 2–3 cm) with sutures. Loops were injected with 100 μL PBS (pH 7.4, 137 mM NaCl, 2.7 mM KCl, 8 mM Na2HPO4, 1.8 mM KH2PO4, 1 mM CaCl2, 0.5 mM MgCl2) containing 30 μM PAT1inh-B01, 10 μM DRAinh-A270, or 10 μM tenapanor (MedChemExpress) (or vehicle, 0.1% DMSO in PBS). In some experiments, 30 μM PAT1inh-B01 and 10 μM DRAinh-A270 were used together. In some experiments to rule out effects of sodium-dependent phosphate transport, the loop lumen contained HEPES-buffered saline (pH 7.4, 137 mM NaCl, 4.5 mM KCl, 10 mM HEPES, 1 mM CaCl2, 0.5 mM MgCl2). The abdominal incision was closed with sutures, and mice were allowed to recover from anesthesia. Intestinal loops were removed at 0 and 30 minutes (in separate mice), and loop length and weight were measured to quantify fluid absorption. In parallel experiments, CF mice were used and loop studies were done as described above. In some experiments, loop fluid was emptied with a syringe, and pH was measured immediately using AB15 pH meter after brief centrifugation at 2000 g for 5 minutes at 4°C.

In experiment [4] the test system is mouse distal colonic closed loops. Description: Closed distal colonic loop fluid absorption. The class given is in vivo. Conditions: 10 μM luminal. The procedure:
For fluid absorption studies in colon, mice were given free access to 5% dextrose in water but not solid food for 48 hours. Mice were treated with 500 μL mineral oil twice a day rectally (final dose 16 h before surgery) during this period to evacuate the colon. Closed distal colonic loops (length 1.5–2 cm, 1 loop per mouse) were isolated as described previously ([7]). Loops were injected with 100 μL PBS with 30 μM PAT1inh-B01, 10 μM DRAinh-A270, or 10 μM tenapanor (or vehicle). In some experiments, 30 μM PAT1inh-B01 and 10 μM DRAinh-A270 were used together. Colonic loops were removed at 0 and 60 minutes (in separate mice), and loop length and weight were measured to quantify fluid absorption.

The test system of experiment [5] is mouse ileal closed loops. Description: Closed ileal loop fluid absorption. The class given is in vivo. Conditions: 10 μM luminal, 30 minutes, PBS. The procedure:
as §1

Experiment [6] has as its system mouse midjejunal closed loops. Description: Closed midjejunal loop fluid absorption. The class given is in vivo. The settings on record: 10 μM luminal, 30 minutes. The procedure:
as §1, with “The abdominal incision was closed with sutures, and mice were allowed to recover from anesthesia.” left out, “In parallel experiments, CF mice were used and loop studies were done as described above.” left out

The subject of experiment [7] is DRA. Nature of the experiment: DRA inhibition potency comparison. The settings on record: vs DRAinh-A250.
The test system of experiment [8] is loperamide-induced constipation in mice. Nature of the experiment: Loperamide model of constipation. Conditions: 10 mg/kg, oral, stool collected over 3 hours. The class given is in vivo, mouse. The procedure:
Wild-type CD1 mice were administered loperamide (0.3 mg/kg, intraperitoneally) in PBS containing 5% ethanol (0.1 mg/mL final concentration) to induce constipation ([9], [30]). PAT1inh-B01 and DRAinh-A270, individually or together (10 mg/kg each, in saline containing 5% DMSO and 10% Kolliphor HS 15), or vehicle control were administered by oral gavage 1 hour before loperamide. After loperamide injection mice were placed individually in metabolic cages with free access to food and water. Stool samples were collected for 3 hours, and total stool weight and number of fecal pellets were quantified. To measure stool water content, stool samples were dried at 80°C for 24 hours and water content was calculated as follows: (wet weight – dry weight)/wet weight ([9], [30]).

As for `Nc1nc2c(nc(Br)n2[C@@H]2O[C@@H]3COP(=O)(O)O[C@H]3[C@H]2O)c(=O)[nH]1` [8-Br-cGMP, reference compound], in experiment [1], the “effect on PAT1-mediated Cl-/I- exchange” value is reported as “did not significantly affect”.

`Nc1ncnc2c1ncn2[C@@H]1O[C@H](COP(=O)(O)OP(=O)(O)OP(=O)(O)O)[C@@H](O)[C@H]1O` [ATP, reference compound]: in experiment [1], the “effect on PAT1-mediated Cl-/I- exchange” value is listed as “did not significantly affect”.

For `Cc1c(CC(=O)O)c(=O)oc2c(C)c(OCc3cccc(Br)c3)ccc12` [DRAinh-A250], the “effect on fluid absorption in closed midjejunal loops” value in experiment [2] is listed as “did not significantly affect”.

As to `Cc1c(CC(=O)O)c(=O)oc2c(C)c(OCc3cccc(I)c3)ccc12` [DRAinh-A270], in experiment [3], the “effect on fluid absorption from ilea of CF mice” value was “no effect”. The “effect on colonic fluid absorption (loop weight-to-length ratio)” value in experiment [4] is “completely prevented”. The “effect on ileal fluid absorption (loop weight-to-length ratio)” value in experiment [5] is on record as “did not inhibit”. In experiment [6], the “inhibition of fluid absorption (decrease in loop weight-to-length ratio)” value is recorded as “approximately 50%”. Moreover, in experiment [7], the “potency as DRA inhibitor relative to DRAinh-A250” value came out at 5 fold. In experiment [8], the “effect on number of pellets” value is “increased”, the “effect on stool water content” value was “normalized” and the “effect on stool weight” value is given as “increased”.

With `O=C(O)c1cccnc1Nc1cccc(C(F)(F)F)c1` [niflumic acid, reference compound], the IC50 in experiment [1] (FRT cells expressing PAT1 and YFP, read-out: IC50, inhibition of PAT1-mediated Cl-/I- exchange) came out at 200 µM.

For the molecule `CN1Cc2c(Cl)cc(Cl)cc2[C@H](c2cccc(S(=O)(=O)NCCOCCOCCNC(=O)NCCCCNC(=O)NCCOCCOCCNS(=O)(=O)c3cccc([C@@H]4CN(C)Cc5c(Cl)cc(Cl)cc54)c3)c2)C1` [tenapanor], in experiment [3], the “effect on fluid absorption from ilea of CF mice” value was “completely blocked”. Moreover, the “effect on colonic fluid absorption (loop weight-to-length ratio)” value in experiment [4] is “did not inhibit”. Besides, the “effect on ileal fluid absorption (loop weight-to-length ratio)” value in experiment [5] is “comparable”. In experiment [6], the “inhibition of fluid absorption (decrease in loop weight-to-length ratio)” value is given as “comparable”.

Source of the values: publication PMC8262356, “SLC26A6-selective inhibitor identified in a small-molecule screen blocks fluid absorption in small intestine” (JCI Insight, 2021).
